The values below come from article PMC7502707, “Characterization and validation of a preventative therapy for hypertrophic cardiomyopathy in a murine model of the disease” (Proceedings of the National Academy of Sciences of the …, 2020).

The subject of series [1] is wt and cTnI-G203S cardiac myocytes. Briefly: Mitochondrial flavoprotein oxidation (autofluorescence) after in vitro peptide exposure. Type of series: cell-based, mouse. The note with it: 10 μM BayK(−). On the procedure:
Fluorescence was measured on a Hamamatsu Orca ER digital camera attached to an inverted Nikon TE2000-U microscope. Fluorescent indicator 5,5′,6,6′-tetrachloro-1,1′,3,3′-tetraethylbenzimidazolylcarbocyanine iodide was used to measure Ψm in cardiac myocytes, as previously described (JC-1, Molecular Probes) ([61]). Autofluorescence was used to measure flavoprotein oxidation in cardiac myocytes based on previously described methods ([13], [29], [62]). Responses to drugs were reported as a percentage increase from the basal average. Detailed methods are provided in SI Appendix. […]
Autofluorescence […]
was used to measure flavoprotein oxidation in cardiac myocytes based on previously described methods (ex = 480 nm, em = 535 nm, interval = 1 min, exposure = 1.5 seconds) (4, 6, 7). Carbonyl cyanide-4-(trifluoromethoxy)phenylhydrazone (FCCP, 50 μM, mitochondrial electron transport chain uncoupler) was added at the end of each experiment to increase flavoprotein oxidation confirming signal was mitochondrial in origin. Ratiometric JC-1 or flavoprotein fluorescent signals were quantified by manually tracing myocytes and subtracting an equivalent background region […]
Responses to drugs were reported as a percentage increase from the basal average. […]
(§1) (10). Cardiac myocytes were treated with relevant drugs in 96 well plates. MTT was added to each well to a final concentration of 0.5 mg/ml and the rate of the increase in absorbance immediately measured using a spectrophotometer at 37°C (PowerWave XS, 570 nm, reference wavelength of 620 nm). The rate of the increase in absorbance in response to treatments was expressed as a percentage of the rate of the increase prior to the addition of treatments. Each n represents number of replicates for each treatment group from cardiac myocytes isolated from a total of 6 wt (AID[S]- TAT), 4 cTnI-G203S (AID[S]-TAT), and 3 (AID-TAT) mice.
(§2) Immunoblot of ICa-L protein

The subject of series [2] is myocytes isolated from wt and cTnI-G203S mice. Kind of series: Flavoprotein oxidation in myocytes isolated from treated mice. Type of series: in vivo, mouse. The note with it: myocytes from precardiomyopathic cTnI-G203S mice treated 10 μM i.p. 3×/wk/5 wk from 20 wk.
Experimental: Male mice expressing the human cTnI gene encoding the human disease-causing mutation cTnI-G203S were used for all studies. […] Male mice expressing the normal human cTnI gene were used as controls (wt). Ten-week-old mice were used for in vitro studies. For in vivo studies, 20- or 30-wk-old cTnI-G203S mice were treated with 10 μM AID-TAT or AID[S]-TAT via intraperitoneal injection, 3×/wk/5 wk. In vivo dose of AID-TAT or AID[S]-TAT (10 μM) was calculated based on blood volume, equating to ∼2 mg/kg total BW. Male animal models were used to eliminate potential differences in responses due to sex. Experiments were performed in a total of 21 wt (AID[S]-TAT), 6 wt (AID-TAT), 15 cTnI-G203S (AID[S]-TAT), and 26 cTnI-G203S (AID-TAT) mice. All animals were randomly assigned to treatment groups.
Fluorescence was measured on a Hamamatsu Orca ER digital camera attached to an inverted Nikon TE2000-U microscope. […]
Additionally, individual 580 nm and 535 nm wavelength signals were assessed in each experiment to determine whether the fluorescent indicator was accurately measuring m. […] Ratiometric JC-1 or flavoprotein fluorescent signals were quantified by manually tracing myocytes and subtracting an equivalent background region […]
The test system is the same in series [3]. Briefly: MTT assay (formation of formazan) in myocytes isolated from treated mice. Format: in vivo, mouse. The note with it: myocytes from precardiomyopathic cTnI-G203S mice treated 10 μM i.p. 3×/wk/5 wk from 20 wk. On the procedure:
The rate of reduction of MTT (Sigma-Aldrich) to formazan by the mitochondrial electron transport chain was measured in intact mouse cardiac myocytes, as previously described ([22], [25]). Each n represents number of replicates for each treatment group from cardiac myocytes isolated from a total of six wt [AID(S)-TAT], four cTnI-G203S [AID(S)-TAT], and three (AID-TAT) mice. Detailed methods are provided in SI Appendix. […]
as §1, with “The rate of reduction of 3-(4,5-Dimethyl-2-thiazolyl)-2,5-diphenyl-2H-tetrazolium bromide (MTT, Sigma-Aldrich, St. Louis, Missouri) to formazan by the mitochondrial electron transport chain was measured in intact mouse cardiac myocytes as previously described (1, 9). This reaction is dependent upon the presence of reduced nicotinamide adenine dinucleotide (NADH) and reduced nicotinamide adenine dinucleotide phosphate (NADPH), and intact mitochondrial electron transport (10).” for “(10).”
as §2

The test system is the same in series [4]. Briefly: Confocal imaging of F-actin (phalloidin) in myocytes from treated mice. Type of series: in vivo, mouse. The note with it: myocytes from cTnI-G203S mice treated 10 μM 3×/wk/5 wk, Pre HCM Rx. On the procedure:
Following completion of treatment regimens, myocytes were isolated and prepared for confocal imaging based on previously described methods ([29]). Detailed methods are provided in SI Appendix.
Echocardiographic measurement of left ventricular function were performed on mice under light methoxyflurane anesthesia using an i13L probe on a Vivid 7 Dimension ultrasound system (GE Healthcare, Little Chalfont, United Kingdom) as previously described (4, 7). Echocardiographic measurements were taken on M-mode in triplicate from separate mice at a sweep speed of 200 mm/s. Each n represents the average of quantitative measurements from wt or cTnI-G203S mice for each treatment group. […] FS was calculated by the formula [(LVEDD-LVESD)/EDD] x 100.
Cell size was determined as previously described (16). […]
To measure kidney toxicity, urea and creatinine concentration was assessed using QuantiChrom Urea and Creatinine assay kits respectively (BioAssay Systems, Hayward CA). To measure liver toxicity, alanine transaminase (ALT) and aspartate transaminase (AST) concentration was measured using Alanine Transaminase and Aspartate Transaminase assay kits respectively (BioAssay Systems, Hayward CA). […]

Series [5] has as its system rats. The conditions noted are these: cited from earlier work.

Take QQLEEDLKGYLDWITQAE [AID-TAT]: the “increase in flavoprotein oxidation in response to BayK(−)” value in series [1] (cTnI-G203S myocytes, 1 μM peptide in vitro) was “attenuated the response”; in series [1] (cTnI-G203S myocytes, 10 μM peptide in vitro), “significantly attenuated the response”; in series [1] (wt myocytes, 1 μM peptide in vitro), “attenuated the response in cTnI-G203S but not wt myocytes”; in series [1] (wt myocytes, 10 μM peptide in vitro) it was “significantly attenuated the response”. Further, the “increase in flavoprotein oxidation following BayK(−)” value in series [2] is listed as “reduced this response to a level comparable to that observed in wt myocytes”. In addition, in series [3], the “increase in metabolic activity (formazan from MTT) following BayK(−)” value is recorded as “reduced this response to a level comparable to that observed in wt myocytes”. In addition, the F-actin organization entry in series [4] was “F-actin organization comparable to wt myocytes”. Besides, the “contractility and cardiac hypertrophy” value in series [5] (following coronary artery occlusion in rats) is “improves contractility and prevents the development of cardiac hypertrophy”. In series [5] (rat, in vivo), the “blood pressure and cardiac myocyte calcium influx” value is reported as “without decreasing blood pressure or altering cardiac myocyte calcium influx”.
